# In patent US20240262844A1, “PYRIDINIUM SALTS AND METHODS OF USE” (UNIVERSITY OF WYOMING, priority 2023, published 2024):
# Where a name gives a salt, the structure may show the parent alone.
# Experiments:
# [1] = target: T1, β2-Microglobulin (11.7 kDa) (Homo sapiens, UniProt P61769); assay: Photochemical labeling of β2-microglobulin (LC/MS, MS-MS); format: biochemical
# T1 construct: β2-microglobulin (Human Urine≥98% (SDS-PAGE)); purchased Lee Biosolutions; host or cells: human urine
# Protocol: General Procedure B: Photochemical Irradiation of Peptides and Proteins: To a 2 mL Pyrex LC/MS vial (Thermo model #03-391-39) were sequentially added solutions containing the desired biomolecule, glutathione (GSH), pyridinium salt, and ammonium acetate (NH4OAc). The resulting solution was diluted to a final volume of 500 μL and then sparged using nitrogen for a minimum of 30 minutes prior to irradiation. The actively sparging solution was then placed in an EvoluChem™ PhotoRedOx Box photoreactor that was equipped with a Kessil, PR160 427 nm LED Lamp and was then irradiated (100% lamp intensity) for the designated time at room temperature while maintaining active sparging. The resultant reaction mixture was then analyzed directly by LC/MS. Analysis of labeling outcomes using LC/MS was performed either by extracted ion chromatogram intensities (method A) or by integrating the area under the peaks associated with peptide content (method B). […]
# Labeling of β2-Microglobulin with Pyridinium Salt 2a (B2-Microglobulin-2a Conjugate). […] The reaction mixture was directly analyzed by LC/MS using method A and was estimated to have proceeded with 88% conversion with a >20:1 mono:di labeled ratio and 7% glutathionylation of all unlabeled and labeled protein content. β2-Microglobulin-2a conjugate (retention time (Tr)=3.26-4.70 min). […]
# [2] = Stern-Volmer fluorescence quenching analysis; format: physicochemical; conditions: 100 μM pyridinium salt in 20 mM NH4OAc pH 6.9, increasing NATA, 375 nm excitation
# Protocol: FIG. 7 is a Stern-Volmer plot of florescence quenching of pyridinium salt 2a with a small molecule tryptophan analog N-acetyltryptophanamide (NATA) according to at least one embodiment of the present disclosure. The Stern-Volmer plot was generated by excitation of a 100 μM solution of pyridinium salt 2a in 20 mM NH4OAc pH 6.9 in the presence of increasing concentrations of NATA. Analyses were performed at 375 nm excitation. The calculated Kq, assuming 11 (0.2548 ns) quenching, was determined to be about 1.019E5 M^−1s^−1. The calculated Kq, assuming τ2 (3.399 ns) quenching, was determined to be about 7.638E3 M^−1s^−1.
# T1 sequence (P61769 21-119): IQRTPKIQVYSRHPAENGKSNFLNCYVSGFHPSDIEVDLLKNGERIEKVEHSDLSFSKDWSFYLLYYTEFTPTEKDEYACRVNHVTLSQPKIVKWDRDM
smiles,measurement,setting,value
"COC(=O)N(C)[n+]1c(C)cc(-c2ccc3cc(OC)ccc3c2)cc1C [Pyridinium salt 2a, 1-((methoxycarbonyl)(methyl)amino)-4-(6-methoxynapthalen-2-yl)-2,6-dimethylpyridin-1-ium tetrafluoroborate]",glutathionylation of all unlabeled and labeled protein content,"[1]; 10 μM β2-microglobulin, 200 μM pyridinium salt, 1 mM glutathione, 30 minutes",7%
same,site of tryptophan modification,[1]; digestion/MS-MS,Trp-60
same,"calculated Kq, assuming τ1 (0.2548 ns) quenching",[2],about 1.019E5 M^−1s^−1
same,"calculated Kq, assuming τ2 (3.399 ns) quenching",[2],about 7.638E3 M^−1s^−1
